Experimental findings from patent publication US20210269483A1, “PEPTIDE COMPOUNDS” (ULTUPHARMA AB, priority 2018, published 2021) are described below.

For series [1], the system named is A. baumannii. It counts as cell-based, Acinetobacter baumannii. The text has this:
(§1) 2015. M7-A10. Methods for dilution antimicrobial susceptibility tests for bacteria that grow aerobically, 10th ed. Approved standard. CLSI, Wayne, Pa.).
(§2) A) In the broth micro-dilution method, the test media were either AM3 Broth (BD Difco Ltd) mixed with phosphate buffered saline (PBS, Amresco LLC, Solon, USA) in 1:4 ratio (E. colt A. baumannii, Enterobacter cloacae, Klebsiella pneumonia and P. aeruginosa), AM3 Broth mixed with PBS in 1:1 ratio (S. aureus) or Malt Extract (ME; 15 g Malt Extract Dico Ltd. in 1000 mL deionized H2O; Aspergillus fumigatus). Prior to MIC-tests, the bacterial cell concentration/fungal spore concentration was adjusted to between 1 and 5×10^5 cells/spores per mL. […] Afterwards, suspensions of pathogen cells in the appropriate medium were dispensed to the wells of microtiter plates and the growth of pathogens were monitored after 16 to 20 h of incubation at 37° C. in the dark. Positive control comprised respective pathogen cells suspended in untreated sterile appropriate media without addition of compounds(s) and negative control comprised the medium only. The MIC was defined as the lowest concentration of each compound with no visible growth of pathogen. All MIC tests were performed in duplicate and/or triplicate and repeated at least twice.

For a further series, the system named is As. fumigatus. It counts as cell-based, Aspergillus fumigatus.
Description: as §1, §2

A further series concerns E. cloacae. It counts as cell-based, Enterobacter cloacae.
Description: as §1, §2

Series [2] has as its system E. coli. It counts as cell-based, Escherichia coli.
Description: as §1, §2

The test system of series [3] is K. pneumoniae. It counts as cell-based, Klebsiella pneumonia.
Description: as §1, §2

Series [4] has as its system P. aeruginosa. It counts as cell-based, Pseudomonas aeruginosa.
Description: as §1, §2

For series [5], the system named is S. aureus. It counts as cell-based, Staphylococcus aureus.
Description: as §1, §2

For series [6], the system named is A. baumannii. It counts as cell-based, Acinetobacter baumannii.
Description: as §1
The source holds these as a separate data set.

Series [7] relates to E. coli. It counts as cell-based, Escherichia coli. Conditions: E. coli EN003, D22 (lps mutant, hypersensitive), method B.
Description: as §1

In series [8] the test system is K. pneumoniae. It counts as cell-based, Klebsiella pneumonia. Conditions: K. pneumoniae EN011, 1161486a (efflux-defective), method B.
Description: as §1

The subject of series [9] is P. aeruginosa. It counts as cell-based, Pseudomonas aeruginosa. Conditions: P. aeruginosa EN005, PAO750 (efflux-defective), method B.
Description: as §1

The test system of series [10] is S. aureus. It counts as cell-based, Staphylococcus aureus.
Description: as §1
The source holds these as a separate data set.

How the values of series [11] were obtained: (§3) IC50, haemolysis rate and frequency of resistance (FoR, Table 4) was determined using standard protocols by different CROs.
In another series the test system is HepG2. As for the experimental part:
as §3

Series [12] has as its system carbapenem resistant strains of E. coil, P. aeruginosa and A. baumannii. It counts as cell-based.
Description: as §1

Setting [13] is: method A, only lower limit of concentration range shown ("16" means "16-32").

Converted amounts (≈) assume the structure as drawn. Where two headings read alike, the source gives them in different places. Starred links: 1 amine or outer side, 2 acyl side, 3 side chain; linkers in the order of their positions; H or OH if unused. Positions of bridges follow the written chain, without caps; N, C: chain ends. Non-standard residues stand in square brackets, D forms with d. Residues, ends and D or L forms follow the SMILES beside them. X2 = CCCCCCC[C@H](CC(=O)[*:1])O[*:2]; Val(3-OH) = CC(C)(O)[C@H](N)C(=O)O; X1 = C/C=C(/N[*:1])C(=O)[*:2]; Dab = NCC[C@H](N)C(=O)O; Dap = NC[C@H](N)C(=O)O

As usually defined, the MIC is the least concentration at which growth counts as inhibited. A low value points to a more susceptible organism. On to `C/C=C1/NC(=O)[C@H](CCN)NC(=O)[C@H](CC(C)C)NC(=O)[C@H](CN)NC(=O)C[C@@H](CCCCCCC)OC(=O)[C@H](CC(=O)O)NC(=O)[C@H](C(C)(C)O)NC(=O)[C@@H](Cc2ccccc2)NC(=O)[C@H](CN)NC(=O)[C@H]([C@@H](C)O)NC1=O` [U747, cyclo-((R)-3-hydroxydecanoyl-L-DAPA-L-Leu-L-DABA-(E)-ABA-L-Thr-L-DAPA-D-Phe-L-OHVal-L-Asp)] ([Dap]L[Dab][X1]T[Dap][dF][Val(3-OH)]D; linker N-C via X2), for which the MIC fell in the range of 1 to 2 µg/mL against A. baumannii [1]; 16 to 32 µg/mL against As. fumigatus; 2 to 4 µg/mL against E. cloacae; 2 to 4 µg/mL against E. coli [2]; 2 to 4 µg/mL with K. pneumoniae [3]; 8 to 16 µg/mL against P. aeruginosa [4]. In addition, the MIC was over 32 µg/mL against S. aureus [5]; 1 to 2 µg/mL with A. baumannii [6]; 8 µg/mL (≈ 7.16 µM) in the series with A. baumannii [6] (A. baumanii EN007, WT, method B); 8 µg/mL (≈ 7.16 µM) with A. baumannii [6] (A. baumanii EN016, BM4454 8, method B); 8 µg/mL (≈ 7.16 µM) in the series with A. baumannii [6] (A. baumanii EN017, BM4652 (efflux-defective), method B); 4 µg/mL (≈ 3.58 µM) in the series with E. coli [7]. Besides, the values for the MIC in the series with K. pneumoniae [8], in the series with P. aeruginosa [9] and against S. aureus [10] were 8 µg/mL (≈ 7.16 µM), 32 µg/mL (≈ 28.6 µM) and 64 µg/mL (≈ 57.3 µM), respectively. Also, in the series on A. baumannii [1], the “MIC A. baumannii LMG1041T” value turned out to be 1 µg/mL (≈ 0.895 µM). Further, in the series on E. cloacae, the “MIC E. cloacae LMG2783T” value was determined as 2 µg/mL (≈ 1.79 µM). The “MIC E. coli LMG15862” value with E. coli [2] is 2 µg/mL (≈ 1.79 µM). In addition, the “MIC K. pneumonia LMG20218” value in the series with K. pneumoniae [3] came out at 2 µg/mL (≈ 1.79 µM). In the series with P. aeruginosa [4], the “MIC P. aeruginosa LMG6395” value is 8 µg/mL (≈ 7.16 µM). Further, in the series with S. aureus [5], the “MIC S. aureus LMG15975” value was over 32 µg/mL. Moreover, the Haemolysis rate in series [11] (100 μM) is 0.6%. Besides, the haemolysis rates entry in series [11] (in words) is recorded as “acceptable”. Also, in the series with HepG2, the “IC50 (HepG2)” value is 50 µg/mL (≈ 44.8 µM). Further, the “toxicity (IC50) against human cell lines” value in the series with HepG2 is given as “low toxicity”. For the same molecule, the “MICs against carbapenem resistant strains, highest” value in [12] fell in the range of 2 to 4 µg/mL. For the same molecule, the “MICs against carbapenem resistant strains, lowest” value in series [12] was 0.5 to 1 µg/mL.
As to “Table 2 cyclic lipodepsipeptide: R C10H21; Asn-Leu-DABA-ABA-Thr-DAPA-Phe-Val-Asp [U842]”, the “MIC A. baumannii LMG1041T” value against A. baumannii [1] (setting [13]) turned out to be 8 µg/mL. Also, the “MIC E. cloacae LMG2783T” value against E. cloacae (setting [13]) is over 32 µg/mL. Further, the “MIC E. coli LMG15862” value against E. coli [2] (setting [13]) turned out to be 16 µg/mL. For the same molecule, in the series with K. pneumoniae [3] (setting [13]), the “MIC K. pneumonia LMG20218” value is over 32 µg/mL. The “MIC P. aeruginosa LMG6395” value in the series on P. aeruginosa [4] (setting [13]) came out at 16 µg/mL. Besides, the “MIC S. aureus LMG15975” value against S. aureus [5] (setting [13]) is 8 µg/mL. The “IC50 (HepG2)” value with HepG2 (HepG2, determined by a CRO) was found to be 22 µg/mL.
